Where two headings read alike, the source gives them in different places.
Experiments:
Type in all cases: biochemical
[1] = biological target: T1, human collagenase-3 (Coll3) (Homo sapiens, UniProt P45452); experiment: In vitro MMP inhibition assay (hydrolysis of fluorogenic MCA peptide substrate), collagenase-3; details: Table 1; Ki,app; MCA peptide substrate 10 μM, 37° C., pH 7.5, 2% DMSO
T1 construct: catalytic domain liberated with APMA
Description: The propeptide and catalytic domain of human collagenase-3 (Coll3) was expressed in E. coli as an N-terminal fusion protein with ubiquitin. After purification of the fusion from inclusion bodies, the catalytic domain was liberated by treatment with 2 mM APMA at room temperature overnight. Final purification was completed using copper chelate chromatography.
(§1) Assays were performed in assay buffer (50 mM Tricine pH 7.5, 200 mM sodium chloride, 10 mM calcium chloride, 0.5 mM zinc acetate containing 2% dimethyl sulfoxide (DMSO)) once the substrate and inhibitor were diluted into it. Stock solutions of inhibitors were prepared in 100% DMSO. Stock solutions of the substrate were prepared in 100% DMSO at a concentration of 6 mM.
(§2) The assay method was based on the hydrolysis of MCA-Pro-Leu-Gly-Leu-DPA-Ala-Arg-NH2 (American Peptide Co.) at 37° C. (see Knight, C. G. et al., FEBS, 1992, 296, 263-266). The fluorescence changes were monitored with a Perkin-Elmer LS-50B fluorimeter using an excitation wavelength of 328 nm and an emission wavelength of 393 nm. The substrate concentration used in the assays was 10 μM. The inhibitor was diluted into the assays from a solution in 100% DMSO, and controls substituted an equal volume of DMSO so that the final DMSO concentration from inhibitor and substrate dilution in all assays was 2%. […] Proper determination of steady-state rates of substrate cleavage required assay lengths of 60 minutes to allow for complete equilibration of the enzyme-inhibitor complex.
(§3) The Km for the MCA peptide substrate with the matrix metalloproteinases is quite high and exceeds its solubility under assay conditions. Consequently, the apparent Ki (Ki,app) was determined to describe the strength of inhibition. However, in this case, Ki,app would be essentially equal to Ki since [S]<<Km. For the determination of Ki,app, the concentration of the inhibitor was varied at a constant and low concentration of substrate and the steady-state rates of fluorescence change determined. In most cases absorptive quench due to the presence of ligand was not observed. For slow-binding inhibitors, onset of inhibition curves were collected for at least 45 minutes so that equilibrium was established. Steady-state rates of fluorescence change were obtained by fitting a curve to an equation for a single exponential decay containing a linear phase. The fitted value of the linear phase was taken as the steady-state rate. The steady-state rates were fitted to the Michaelis equation describing competitive inhibition by non-linear methods. Data resulting from tight-binding inhibition was analyzed, and Ki,app determined by fitting the data to the tight-binding equation of Morrison (Biochem. Biophys. Acta, vol. 185, pp. 269-286 (1969)) by non-linear methods.
(§4) All Ki values are in nM units.

[2] = biological target: T2, Human matrilysin (Matr) (Homo sapiens, UniProt P09237); experiment: In vitro MMP inhibition assay (hydrolysis of fluorogenic MCA peptide substrate), matrilysin; details: Table 1; Ki,app; MCA peptide substrate 10 μM, 37° C., pH 7.5, 2% DMSO; read-out: Matri Ki
T2 construct: catalytic domain liberated with APMA
T2 sequence (P09237 95-267): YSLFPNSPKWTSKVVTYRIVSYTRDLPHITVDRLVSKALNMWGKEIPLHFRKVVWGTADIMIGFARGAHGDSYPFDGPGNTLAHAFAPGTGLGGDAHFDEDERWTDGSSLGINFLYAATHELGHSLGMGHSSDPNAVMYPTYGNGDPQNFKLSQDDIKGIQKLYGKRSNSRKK
Description: Human matrilysin (Matr) was expressed in E. coli as a fusion protein with ubiquitin. After purification of the matrilysin/ubiquitin fusion from inclusion bodies, the catalytic domain was liberated by treatment with 2 mM APMA at 37° C. for 2 hours. Final purification was complete using copper chelate chromatography.
as §1, §2, §3, §4

[3] = biological target: human stromelysin (Sln) (Homo sapiens, UniProt P08254); experiment: In vitro MMP inhibition assay (hydrolysis of fluorogenic MCA peptide substrate), stromelysin
human stromelysin (Sln), sequence (P08254 100-272 limits assumed): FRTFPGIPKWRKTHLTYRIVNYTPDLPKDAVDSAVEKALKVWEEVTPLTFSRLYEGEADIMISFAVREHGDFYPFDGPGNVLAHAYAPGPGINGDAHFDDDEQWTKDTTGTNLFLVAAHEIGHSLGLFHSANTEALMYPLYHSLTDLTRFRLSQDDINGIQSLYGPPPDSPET
Description: The catalytic domain of human stromelysin (Sln) was obtained by expression and purification of a C-terminally truncated prostromelysin-1 from E. coli host BL21 (see Marcy et al. Biochem., 1991, 30, 6476). The subsequent activation of the mature form (Sln) was completed with 2 mM APMA for 1 hour at 37° C., followed by separation using a sizing column.
as §1, §2, §3, §4

[4] = biological target: human progelatinase A (GelA) (Homo sapiens, UniProt P08253); experiment: In vitro MMP inhibition assay (hydrolysis of fluorogenic MCA peptide substrate), gelatinase A
human progelatinase A (GelA), sequence (P08253 110-446 limits assumed): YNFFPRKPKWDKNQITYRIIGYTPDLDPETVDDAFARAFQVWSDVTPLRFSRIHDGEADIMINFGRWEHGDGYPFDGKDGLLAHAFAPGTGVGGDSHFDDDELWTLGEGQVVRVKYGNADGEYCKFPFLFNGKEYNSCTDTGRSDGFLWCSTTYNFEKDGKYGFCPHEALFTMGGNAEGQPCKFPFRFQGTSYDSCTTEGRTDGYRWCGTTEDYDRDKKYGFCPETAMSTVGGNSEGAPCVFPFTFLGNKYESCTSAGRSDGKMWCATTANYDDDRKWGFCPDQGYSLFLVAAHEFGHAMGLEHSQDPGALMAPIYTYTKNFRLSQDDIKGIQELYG
Description: The catalytic and fibronectin-like portion of human progelatinase A (GelA) was expressed as a fusion protein with ubiquitin in E. Coli. Assays were carried out on autocatalytically activated material.
as §1, §2, §3, §4

[5] = biological target: T3, human collagenase-1 (HFC) (Homo sapiens, UniProt P03956); experiment: In vitro MMP inhibition assay (hydrolysis of fluorogenic MCA peptide substrate), fibroblast collagenase-1; details: Table 1; Ki,app; MCA peptide substrate 10 μM, 37° C., pH 7.5, 2% DMSO
T3 sequence (P03956 100-269 limits assumed): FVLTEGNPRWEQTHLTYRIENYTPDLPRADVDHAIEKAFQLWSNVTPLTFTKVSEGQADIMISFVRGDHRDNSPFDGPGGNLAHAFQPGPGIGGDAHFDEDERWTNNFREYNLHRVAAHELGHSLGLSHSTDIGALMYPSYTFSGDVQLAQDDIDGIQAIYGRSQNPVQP
Description: The catalytic domain of human collagenase-1 was expressed as a fusion protein with ubiquitin in E. coli (see Gehring, E. R., J Biol. Chem., 1995, 270, 22507). After purification of the fusion protein, the fibroblast collagenase-1 catalytic domain (HFC) was released either by treatment with purified, active stromelysin-1 (1:50 wlw ratio), which generated nearly 100% N-terminal Phe1, or by autoprocessing the concentrated collagenase-1 fusion and then incubating at 37° C. for 1 hour. Final purification was completed using zinc chelate chromatography.
as §1, §2, §3, §4

[6] = Table 1, Ki,app, MCA peptide substrate 10 μM, 37° C., pH 7.5, 2% DMSO, read-out: Sin Ki
[7] = Table 1, Ki,app, MCA peptide substrate 10 μM, 37° C., pH 7.5, 2% DMSO, read-out: Gel A

| Structure (SMILES) | Ki [1] | Ki [2] | Ki [3, 6] | Ki [4, 7] | Ki [5] | Ki ([3]; Table 2, comparative example, read-out: STROMELYSIN Ki) | Ki ([4]; Table 2, comparative example, gelatinase A, read-out: GELATINASE Kj) |
| --- | --- | --- | --- | --- | --- | --- | --- |
| CC(C)(C)C(NS(=O)(=O)c1ccc(Oc2ccc(F)cc2)cc1)C(=O)NO (stereo in doubt) [Example 9l, 2(S)--N-hydroxy-3,3-dimethyl-2-[(4-(4-fluorophenoxy)benzenesulfonyl)-amino]butanamide] | 0.059 nM | 120 nM | 1.8 nM | 0.109 nM | 30 nM |  |  |
| CC(C)(SCc1ccccn1)[C@@H](NS(=O)(=O)c1ccc(Oc2ccc(Br)cc2)cc1)C(=O)O [Example 3d, N-[4-(4-Bromophenoxy)benzenesulfonyl]--S--[(pyrid-2-yl)methyl]-D-penicillamine] | 178 nM | 75000 nM | 1500 nM | 7 nM | 34000 nM |  |  |
| CC(C)(C)C(NS(=O)(=O)c1ccc(Oc2ccc(Cl)cc2)cc1)C(=O)NO (stereo in doubt) [Example 9m, 2(S)--N-hydroxy-3,3-dimethyl-2-[(4-(4-chlorophenoxy)benzenesulfonyl)amino]butanamide] | 0.034 nM | 93 nM | 1 nM | 0.09 nM | 21 nM | 1 nM | 0.09 nM |
| CC(C)(SCc1ccccc1)[C@@H](NS(=O)(=O)c1ccc(Oc2ccccc2)cc1)C(=O)NO [Example 9i, 2(S)--N-hydroxy-3-methyl-3-benzylsulfanyl-2-[(4-phenoxybenzenesulfonyl)amino]butanamide] | 0.16 nM | 26 nM | 1.4 nM | 0.038 nM | 33 nM |  |  |
| CC(C)(C)[C@H](NS(=O)(=O)c1ccc(Oc2ccccn2)cc1)C(=O)NO [Example 10c] | 4.6 nM | 2270 nM | 71 nM | 5.1 nM | 960 nM |  |  |
| CSC(C)(C)[C@@H](NS(=O)(=O)c1ccc(Oc2ccc(Cl)cc2)cc1)C(=O)NO [Example 9b, 2(S)--N-hydroxy-3-methyl-3-methylsulfanyl-2-[(4-(4-chlorophenoxy)benzenesulfonyl)amino]butanamide] | 0.042 nM | 115 nM | 1.5 nM | 0.065 nM | 30 nM |  |  |

— patent US5985900A, “Metalloproteinase inhibitors, pharmaceutical compositions containing them and their pharmaceutical uses” (Agouron Pharmaceuticals, Inc., priority 1998, dated 1999)
